Experimental findings from patent US20250353873A1, “COMPOUNDS AND METHODS FOR MODULATING APOE EXPRESSION” (Ionis Pharmaceuticals, Inc., priority 2024, published 2025) are described below.

Strand notation (5' to 3'): a small letter for the sugar, then the base; units joined by * are phosphorothioate-linked, units joined directly phosphodiester-linked; [ ] holds rarer units or linkages, { } end groups; capitals alone tell only the bases. [ms] = mesyl phosphoramidate linkage; e = 2'-O-(2-methoxyethyl) (MOE); k = constrained ethyl (cEt); [5mC] = 5-methylcytosine; d = 2'-deoxy (DNA)

The test system of series [1] is human APOE RNA. Kind of series: Dose-dependent inhibition of human APOE RNA in HepG2 cells, electroporation, 50,000 cells per well, RT-PCR normalized to GAPDH (Example 4, Tables 8-10). The following applies: HepG2, electroporation, 24-hour treatment. Format: cell-based. As to the method:
Modified oligonucleotides selected from the examples above were tested at various doses in HepG2 cells. The modified oligonucleotides were tested in a series of experiments that had the same culture conditions. Each experiment is identified in separate tables below.
HepG2 cells plated at a density of 50,000 cells per well were treated by electroporation with various concentrations of modified oligonucleotide as specified in the tables below. […] APOE RNA levels were measured using the human primer probe set RTS3073 (forward sequence […], designated herein as SEQ ID NO: 7; reverse sequence CCATCAGCGCCCTCAGTT, designated herein as SEQ ID NO: 8; probe sequence […], designated herein as SEQ ID NO:9). APOE RNA levels were normalized to human GAPDH. […] Results are presented as percent APOE RNA, relative to the amount of APOE RNA in untreated control cells (UTC).

Series [2] deals with human APOE RNA. Kind of series: Activity in APOE C57BL/6NTac-Apoeem7250 knock-in mice, single ICV bolus, 4 weeks (Example 10). Format: in vivo. The following applies: single ICV bolus 300 μg, 4 weeks post treatment, normalized to mouse Ppia. As to the method: Modified oligonucleotides described above were tested in the APOE C57BL/6NTac-Apoeem7250 knock-in mouse model described above.
APOE C57BL/6NTac-Apoeem7250 knock-in mice were divided into groups of 2-4 mice each. Each mouse received a single ICV bolus of 300 μg of modified oligonucleotide. A group of 3-4 mice received a single ICV bolus with PBS as a negative control.
Four weeks post treatment, mice were sacrificed and RNA was extracted from cortical brain tissue and spinal cord for quantitative real-time RT-PCR analysis of RNA expression of APOE using human primer probe set RTS3073 (described herein above). APOE RNA levels were normalized to mouse Ppia. Mouse Ppia was amplified using primer probe set m_cyclo24 (described herein above). Results are presented as percent human APOE RNA relative to the amount of human APOE RNA in PBS treated animals, (% control). Each experiment is identified in separate tables below.

Series [3] relates to human APOE RNA. The experiment in a line: Activity in APOE C57BL/6NTac-Apoeem7250 knock-in mice, single ICV bolus, 8 weeks (Example 11). Format: in vivo. The following applies: single ICV bolus 300 μg, 8 weeks post treatment, normalized to mouse Ppia. The gist of the method:
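Human APOE knock-in C57BL/6NTac mice given one ICV bolus of 300 μg oligonucleotide; PBS-dosed group as control. At 8 weeks, cortex and spinal cord RNA measured by qRT-PCR (human probe RTS3073), normalized to mouse Ppia, expressed as % of PBS control.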

Series [4] deals with human APOE RNA. Kind of series: Activity in APOE C57BL/6NTac-Apoeem7250 knock-in mice, single ICV bolus, 16 weeks (Example 12). Particulars: single ICV bolus 300 μg, 16 weeks post treatment, normalized to mouse Ppia. Format: in vivo. The gist of the method:
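Knock-in mice (3-4 per group) received one ICV bolus of 300 μg oligonucleotide, PBS as control. After 16 weeks, human APOE RNA in cortex and spinal cord measured by RT-qPCR, normalized to mouse Ppia, and reported as % of PBS control.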

Broadly, the IC50 is the concentration that gives 50% inhibition.

For the substance “1746812 (k[5mC]*dT[ms]dT[ms]dG[ms]kG*kT*dG[ms]dA[ms]dA[ms]dT*d[5mC]*dT*dT*dT*dA[ms]dT*dT[ms]kA*kA*kA; antisense) [Compound 1746812]”, the “APOE RNA (% UTC)” value was determined as 105 % UTC in the series on human APOE RNA [1] (5 nM); 109 % UTC with human APOE RNA [1] (13 nM); 90 % UTC with human APOE RNA [1] (33 nM); 102 % UTC in the series with human APOE RNA [1] (82 nM); 86 % UTC in the series with human APOE RNA [1] (205 nM); 76 % UTC in the series with human APOE RNA [1] (512 nM). Moreover, the “APOE RNA (% UTC)” value turned out to be 51 % UTC in the series with human APOE RNA [1] (1,280 nM), 31 % UTC in the series on human APOE RNA [1] (3,200 nM), 19 % UTC with human APOE RNA [1] (8,000 nM) and 11 % UTC in the series with human APOE RNA [1] (20,000 nM). The same substance gave an IC50 with human APOE RNA [1] of 1500 nM. The “APOE RNA (% control) Cortex” value in the series on human APOE RNA [2] was 68 % control. Besides, the “APOE RNA (% control) Spinal Cord” value in the series on human APOE RNA [2] turned out to be 79 % control.

For the substance “1746787 (k[5mC]*kT*dT[ms]dG[ms]dG[ms]kT*dG[ms]dA[ms]dA[ms]dT*d[5mC]*dT*dT*dT*dA[ms]dT*kT*kA*dA[ms]kA; antisense) [Compound 1746787]”, the “APOE RNA (% UTC)” value with human APOE RNA [1] (5 nM) is reported as 148 % UTC; with human APOE RNA [1] (13 nM), 108 % UTC; with human APOE RNA [1] (33 nM) it was 92 % UTC; in the series on human APOE RNA [1] (82 nM), 97 % UTC; in the series with human APOE RNA [1] (205 nM), 87 % UTC; with human APOE RNA [1] (512 nM), 68 % UTC. Further, the “APOE RNA (% UTC)” value is recorded as 56 % UTC in the series on human APOE RNA [1] (1,280 nM), 37 % UTC in the series with human APOE RNA [1] (3,200 nM), 11 % UTC with human APOE RNA [1] (8,000 nM) and 14 % UTC with human APOE RNA [1] (20,000 nM). The substance also had an IC50 with human APOE RNA [1] of 1520 nM. In the series with human APOE RNA [2], the “APOE RNA (% control) Cortex” value amounted to 76 % control. Moreover, the “APOE RNA (% control) Spinal Cord” value in the series with human APOE RNA [2] amounted to 71 % control.

As for “1746802 (k[5mC]*dT[ms]dT[ms]dG[ms]kG*kT*dG[ms]dA[ms]dA[ms]dT*d[5mC]*dT*dT*dT*dA[ms]dT*kT*dA[ms]kA*kA; antisense) [Compound 1746802]”, the “APOE RNA (% UTC)” value was determined as 76 % UTC with human APOE RNA [1] (5 nM); 108 % UTC with human APOE RNA [1] (13 nM); 74 % UTC in the series on human APOE RNA [1] (33 nM); 72 % UTC with human APOE RNA [1] (82 nM); 58 % UTC in the series with human APOE RNA [1] (205 nM); 57 % UTC in the series on human APOE RNA [1] (512 nM). In addition, the “APOE RNA (% UTC)” value in the series with human APOE RNA [1] (1,280 nM) worked out at 36 % UTC; in the series with human APOE RNA [1] (3,200 nM) it was 47 % UTC; with human APOE RNA [1] (8,000 nM), 39 % UTC; in the series on human APOE RNA [1] (20,000 nM), 3 % UTC. This substance gave an IC50 in the series on human APOE RNA [1] of 780 nM. Also, the “APOE RNA (% control) Cortex” value with human APOE RNA [2] was 72 % control. For the same substance, the “APOE RNA (% control) Spinal Cord” value in the series on human APOE RNA [2] is recorded as 52 % control.

Regarding “1746795 (k[5mC]*kT*dT[ms]kG*dG[ms]dT[ms]dG[ms]dA[ms]dA[ms]dT*d[5mC]*dT*dT*dT*dA[ms]dT*kT*dA[ms]kA*kA; antisense) [Compound 1746795]”, the “APOE RNA (% UTC)” value with human APOE RNA [1] (5 nM) amounted to 119 % UTC; in the series on human APOE RNA [1] (13 nM), 115 % UTC; with human APOE RNA [1] (33 nM), 110 % UTC; in the series with human APOE RNA [1] (82 nM) it was 108 % UTC; with human APOE RNA [1] (205 nM), 99 % UTC; in the series with human APOE RNA [1] (512 nM), 53 % UTC. Besides, the “APOE RNA (% UTC)” value with human APOE RNA [1] (1,280 nM) was found to be 57 % UTC; with human APOE RNA [1] (3,200 nM) it was 28 % UTC; in the series with human APOE RNA [1] (8,000 nM), 12 % UTC; in the series with human APOE RNA [1] (20,000 nM), 6 % UTC. The substance also yielded an IC50 in the series on human APOE RNA [1] of 1290 nM. Further, the “APOE RNA (% control) Cortex” value in the series on human APOE RNA [2] was 75 % control. Further, in the series with human APOE RNA [2], the “APOE RNA (% control) Spinal Cord” value was 75 % control.

For “1693039: 5-10-5 MOE gapmer CTTGGTGAATCTTTATTAAA, linkages sssosszzzssssssooss (antisense e[5mC]*eT*eT*eGeG*dT*dG[ms]dA[ms]dA[ms]dT*d[5mC]*dT*dT*dT*dA*eTeTeA*eA*eA) [compound 1693039]”, the “APOE RNA (% control) Cortex” value in the series on human APOE RNA [3] (cortex) came to 90 % control; with human APOE RNA [4] (cortex), 127 % control. Besides, the “APOE RNA (% control) Spinal Cord” value is 71 % control with human APOE RNA [3] (spinal cord) and 99 % control in the series with human APOE RNA [4] (spinal cord).
